For data set [1] the following is noted: cited from earlier work; for sun protection factor (SPF): 290-400 nm.
Another data set deals with skin of healthy subjects. To be noted: cited from earlier work.
A further data set deals with subject's skin. Put plainly: In vivo photoprotection, clinical erythema evaluation after UVB irradiation. On the set-up: species or system human. As to conditions: Malassezin 1% formulation, one Skin Type IV subject. An excerpt: The Malassezin 1% formulation used in this study contained the following ingredients: Water (aqua)—65.939%; Dimethyl isosorbide—20.000%; Olive Oil Glycereth-8 Esters—3.000%; Glycerin—2.991%; Coconut Alkanes—2.700%; Hydroxyethyl Acrylate/Sodium Acryloyldimethyl Taurate Copolymer—1.700%; Malassezin—1.000%; Pentylene Glycol—1.000%; Phenoxyethanol—0.640%; Coco-Caprylate/Caprate—0.300%; Caprylyl Glycol—0.200%; Chlorphenesin—0.160%; Sorbitan Isostearate—0.140%; Tocopherol—0.100%; Polysorbate 60-0.080%; and Disodium EDTA—0.050%.
A Skin Type IV […] was included in this Proof of Concept study.
A template of 6 squares was placed on the lower left back (1.5 cm×1.5 cm) of the test subject.
Twenty-four hours after irradiation, the subject returned for MED assessment.
A second right lower square was treated twice daily from day 4 to day 7, and a third medial square for one application on day 7. The product vehicle was applied for 7 days twice daily on the left back. The subject returned to the research center for irradiation on day 7. Each test site was irradiated with 120 mJ of UVB exposure. The subject returned in 24 hours for assessment of phototoxicity/photoprotection.
The subject continued the experiment, receiving Malassezin 1% for a total of 14 days. […]

Data set [2] concerns COL3A1 (Collagen, type III, alpha 1). Kind of data set: Differential gene fold expression analysis of skin biopsies. It is filed as in vivo, human. To be noted: RNA, biopsy of treated vs untreated skin after 6 weeks of application, parentheses = not statistically significant, negative = decrease. An excerpt:
(§1) Differential gene fold expression analysis was used to analyze Malassezin and compound AB17151. Biopsies from human subjects were taken after 6 weeks of application of compounds. Two participants applied AB17151 and one participant applied Malassezin. Biopsies were taken of treated skin and, as a control and for comparison, from untreated skin.
(§2) In the Table, numbers in parentheses indicate changes that are not statistically significant. All numbers indicate fold change in expression. Negative values indicate decreases in activity. A minus-3-fold change in activity, for example, means that the value changed by minus-3-fold, meaning it changed to ⅓ of its original value.

A further data set concerns fine lines and wrinkles. Put plainly: Fine lines and wrinkles, dermatologist evaluation (Lemperle classification). It counts as in vivo, human. To be noted: 11 subjects, 0.1%, 0.5% and 1.0% formulations pooled. The method, then: Malassezin formulations were evaluated for their effect on fine lines and wrinkles. In this study, human subjects with skin containing areas of hyperpigmentation were randomized to one of 3 groups. […] One mL of product (formulations detailed below) was applied to the face of subjects twice daily. Five minutes after the morning application, an SPF 50 sunscreen was applied to protect the treated areas from sun. Each subject had assessments at Baseline, 2, 4, 8, 14, 18 and 22 weeks. Treatment was ceased at 14 weeks. Week 18 and week 22 observations were to determine any return towards baseline.
Eleven subjects using the test ingredient completed week 14. […] An M.D. dermatologist with experience in evaluating fine lines and wrinkles performed evaluations on the subjects in this study and obtained the measurements tabulated below. Wrinkle assessment, classification, and evaluation were performed as described in G. Lemperle et al., A classification of facial wrinkles, Plast. Reconstr. Surg. 108: 1735 (2001), incorporated by reference herein in its entirety. For each subject, the percentage Malassezin formulation is indicated.

For data set [3], the system named is lines and wrinkles, skin texture, tone and firmness. Put plainly: Subject self-assessment questionnaire. It is filed as in vivo, human. As to conditions: percentage of 11 subjects with a score of 6 or 5, formulations pooled. The method, then: Malassezin formulations were evaluated for their effect on fine lines and wrinkles. In this study, human subjects with skin containing areas of hyperpigmentation were randomized to one of 3 groups. Product use groups included Malassezin 0.05%, 0.1%, and 1.0%. One mL of product (formulations detailed below) was applied to the face of subjects twice daily. Five minutes after the morning application, an SPF 50 sunscreen was applied to protect the treated areas from sun. Each subject had assessments at Baseline, 2, 4, 8, 14, 18 and 22 weeks. Treatment was ceased at 14 weeks. Week 18 and week 22 observations were to determine any return towards baseline.
A subject self-assessment was completed at every visit. A total number of eleven (11) subjects were asked to respond to the questions regarding the improvement (if any) in their lines and wrinkles and related skin texture, tone, and firmness. Each answer was ranked from 6 to 1, with each having the meaning: 6—Strongly agree, 5—Agree, 4—Agree somewhat, 3—Disagree somewhat, 2—Disagree, and 1—Strongly disagree. The percentage of subjects answering with a score of 6 or 5 was calculated and is presented in the data below.

A further data set is described as follows: Adverse events recording. It counts as in vivo, human. To be noted: all visits; Malassezin 0.1%, 0.5%, 1.0% formulations twice daily to the face. The method, then:
Evaluation: Colorimetry measurements using the Mexameter MX 18 were used at Baseline, and Weeks 2, 4, 8, 14, 18, and 22. Clinical assessments of depigmentation was performed in the treated area. Assessments were performed at Baseline, and Weeks 2, 4, 8, 14, 18, and 22. Brightening assessments included brightening of normal skin and/or severity of dyschromia, if present (see scale). Global improvement was measured at the same time intervals. At all visits any adverse events (AE) was to be recorded including itching, burning, erythema, edema, dryness, scaling or skin peeling (see rating scales). […] Positive percentages indicate increased pigmentation, which indicates darkening. “Conc.” indicates the concentration of Malassezin in the formulation administered to the subject.

For data set [4], the system named is COL1A1 (Collagen, type 1, alpha 1). Put plainly: Differential gene fold expression analysis of skin biopsies. It is filed as in vivo, human. To be noted: RNA, biopsy of treated vs untreated skin after 6 weeks of application; participant; parentheses = not statistically significant; negative = decrease.
Text: as §1, §2

Data set [5] deals with COL1A2 (Collagen, type 1, alpha 2). The data set is described as above. It counts as in vivo, human. As to conditions: RNA, biopsy of treated vs untreated skin after 6 weeks of application, parentheses = not statistically significant, negative = decrease.
Text: as §1, §2

Data set [6] has as its system COL5A1 (Collagen, type V, alpha 1). The data set is described as above. It is filed as in vivo, human. To be noted: RNA, biopsy of treated vs untreated skin after 6 weeks of application; participant; parentheses = not statistically significant; negative = decrease.
Text: as §1, §2

For data set [7], the system named is COL5A2 (Collagen, type V, alpha 2). Described as above. It counts as in vivo, human. To be noted: RNA, biopsy of treated vs untreated skin after 6 weeks of application; participant; parentheses = not statistically significant; negative = decrease.
Text: as §1, §2

Data set [8] relates to MMP7 (Matrix Metalloproteinase 7). The data set is described as above. It is filed as in vivo, human. To be noted: RNA, biopsy of treated vs untreated skin after 6 weeks of application; participant one; parentheses = not statistically significant; negative = decrease.
Text: as §1, §2

Data set [9] deals with PCOLCE2 (Pro-Collagen C endopeptidase enhancer 2). Described as above. It is filed as in vivo, human. To be noted: RNA, biopsy of treated vs untreated skin after 6 weeks of application, parentheses = not statistically significant, negative = decrease.
Text: as §1, §2

Where two headings read alike, the source gives them in different places.

Turning to `O=C(c1c[nH]c2ccccc12)c1nccc2c1[nH]c1ccccc12` [pityriacitrin, Pityriacitrin], the “sun protection factor (SPF)” value in [1] (pityriacitrin concentration 1.25% in cream) was 1.4; in data set [1] (pityriacitrin concentration 2.5% in cream), 1.5; in [1] (pityriacitrin concentration 5% in cream), 1.7. The “UVB and UVA transmission” value in [1] (pityriacitrin cream formulations) is “decreased with increasing pityriacitrin concentrations”. Besides, the “UV protective effect, overall” value in the data set on skin of healthy subjects (in vitro and in vivo test methods) is listed as “very weak”. Further, the “in vivo confirmation of the SPF determined in vitro” value in the data set on skin of healthy subjects (pityriacitrin 5% cream) is reported as “confirmed the validity of the SPF”.

Regarding `O=Cc1c(Cc2c[nH]c3ccccc23)[nH]c2ccccc12` [Malassezin], in the data set on subject's skin, the “UV-protective properties, conclusion of the Proof of Concept study” value is reported as “UV-protective properties”. The “COL3A1 fold change in expression” value in data set [2] (participant two) is listed as 1.7 fold change. For the same compound, the “Fine lines/wrinkles score, Average” value was found to be 2.55 in the data set with fine lines and wrinkles (Week 0 (baseline)); 1.82 with fine lines and wrinkles (Week 2, P-value 0.024 (Student's T test)); 1.73 with fine lines and wrinkles (Week 4, P-value 0.011 (Student's T test)); 1.73 in the data set on fine lines and wrinkles (Week 8, P-value 0.011 (Student's T test)); 1.73 in the data set with fine lines and wrinkles (Week 14, P-value 0.011 (Student's T test)). In addition, the “Self-assessment: I have smoother skin texture” value in data set [3] (Week 2) worked out at 45.45%; in data set [3] (Week 4), 63.64%; in [3] (Week 8), 81.82%; in data set [3] (Week 14), 90.91%. Besides, the “Self-assessment: My Lines and wrinkles are less visible” value in data set [3] (Week 2) was determined as 36.36%; in [3] (Week 4), 54.55%; in [3] (Week 8), 63.64%; in data set [3] (Week 14) it was 90.91%. The “Self-assessment: My skin firmness has improved” value in data set [3] (Week 2) is 36.36%; in [3] (Week 4), 63.64%; in data set [3] (Week 8), 63.64%; in data set [3] (Week 14), 72.73%. Besides, the “Self-assessment: My skin has a brighter tone” value in [3] (Week 2) is given as 45.45%; in data set [3] (Week 4), 63.64%; in data set [3] (Week 8), 72.73%; in data set [3] (Week 14), 81.82%. The “Self-assessment: My skin looks more youthful and healthy” value is 45.45% in data set [3] (Week 2), 63.64% in [3] (Week 4), 81.82% in data set [3] (Week 8) and 72.73% in data set [3] (Week 14). Further, the “Self-assessment: My skin texture is less coarse” value in [3] (Week 2) is 54.55%; in [3] (Week 4), 63.64%; in data set [3] (Week 8), 72.73%; in data set [3] (Week 14), 100.00%. For the same compound, the “Self-assessment: Overall skin texture is improved” value is recorded as 54.55% in data set [3] (Week 2), 63.64% in data set [3] (Week 4), 81.82% in data set [3] (Week 8) and 90.91% in [3] (Week 14). For the same compound, the “Self-assessment: Overall skin tone is improved” value in [3] (Week 2) is on record as 54.55%; in data set [3] (Week 4) it was 63.64%; in data set [3] (Week 8), 72.73%; in [3] (Week 14), 81.82%. Moreover, in “Adverse events recording”, the “adverse events (itching, burning, erythema, edema, dryness, scaling or skin peeling)” value was “No AEs were recorded”.

Turning to `COC(=O)c1c(C(c2c[nH]c3ccccc23)C2CC2)[nH]c2ccccc12` (centres unmarked) [AB17151], the “COL1A1 fold change in expression” value in [4] was 5.61 fold change. Besides, the “COL1A2 fold change in expression” value is on record as 1.99 fold change in data set [5] (participant one) and 6.97 fold change in data set [5] (participant). Moreover, the figures for the “COL3A1 fold change in expression” value in [2] (participant one) and in [2] (participant) were 2.59 fold change and 6.26 fold change, respectively. Further, the “COL5A1 fold change in expression” value in [6] turned out to be 6.1 fold change. The “COL5A2 fold change in expression” value in data set [7] was 2.23 fold change. In addition, in [8], the “MMP7 fold change in expression” value came out at 1.79 fold change. Moreover, the results for the “PCOLCE2 fold change in expression” value in data set [9] (participant one) and in data set [9] (participant) were 1.57 fold change and 1.5 fold change, respectively.
